Results as given in ChEMBL document CHEMBL4616700, “Novel HIV-1 Protease Inhibitors with Morpholine as the P2 Ligand to Enhance Activity against DRV-Resistant Variants” (ACS Med Chem Lett, 2020).

How the values were obtained:
[1] = molecular target: Human immunodeficiency virus type 1 protease (Human immunodeficiency virus 1, UniProt Q72874); test: (§1) Inhibition of wild type HIV1 protease expressed in Escherichia coli using Arg-Glu (EDANS)-Ser-Gln-Asn-Tyr-Pro-Ile-Val-Gln-Lys(DABCYL)-Arg as substrate preincubated for 20 to 30 mins followed by substrate addition and measured for 10 mins by FRET assay
[2] = test system: Human immunodeficiency virus 1; test: Antiviral activity against wild type HIV-1; assay type: functional, organism-based
[3] = molecular target: Human immunodeficiency virus type 1 protease (Human immunodeficiency virus 1) (UniProt Q72874); test: as §1, with “Potency index, ratio of Darunavir Ki to compound Ki for inhibition” for “Inhibition”
[4] = test system: Human immunodeficiency virus 1; test: Antiviral activity against VSV-G pseudotyped HIV1 NL4-3 in human TZM-bl cells infected with virus particles extracted from human SupT1 cells infected with HIV1 NL4-3 at 10 uM incubated for 48 hrs assessed as inhibition of late stage viral infection by luciferase assay relative to control; assay type: functional; details: Human immunodeficiency virus 1, NL4-3, TZM
[5] = test system: Human immunodeficiency virus 1; test: Potency index, ratio of Darunavir IC50 to compound IC50 for antiviral activity against wild type HIV-1; assay type: functional
[6] = test system: Human immunodeficiency virus 1; test: (§2) Antiviral activity against VSV-G pseudotyped darunavir-resistant HIV1 NL4-3 in human SupT1 cells infected with supernatants of virus particles extracted from human 293T cells infected with darunavir-resistant HIV1 NL4-3 incubated for 48 hrs assessed as inhibition of late stage viral infection by single-round infection based luciferase reporter assay; assay type: functional, organism-based; details: Human immunodeficiency virus 1, NL4-3, 48 h
[7] = test system: Human immunodeficiency virus 1; test: Antiviral activity against VSV-G pseudotyped HIV1 NL4-3 infected in human SupT1 cells assessed as inhibition of early stage viral infection at 10 uM after 48 hrs by luciferase assay relative to control; assay type: functional; details: Human immunodeficiency virus 1, NL4-3, SUP-T1, 48 h
[8] = test system: Human immunodeficiency virus 1; test: as §2, with “wild type” for “darunavir-resistant”; assay type: functional, organism-based; details: Human immunodeficiency virus 1, NL4-3, 48 h

| SMILES | Ki [1] [nM] | IC50 [2] [nM] | other results |
| --- | --- | --- | --- |
| CC(C)CN(C[C@@H](O)[C@H](Cc1ccccc1)NCCN1CCOCC1)S(=O)(=O)c1ccc(N)cc1 | 96.2 | 429 |  |
| COc1ccc(S(=O)(=O)N(CC(C)C)C[C@@H](O)[C@H](Cc2ccccc2)NC(=O)CN2CCO[C@H](C)C2)cc1 | 14.2 | 63.6 |  |
| CC(C)CN(C[C@@H](O)[C@H](Cc1ccccc1)NCC(=O)N1CCOCC1)S(=O)(=O)c1ccc(N)cc1 | 22.8 | 102 |  |
| CC(C)CN(C[C@@H](O)[C@H](Cc1ccccc1)NC(=O)N1CCOCC1)S(=O)(=O)c1ccc(N)cc1 | 7.28 | 32.5 |  |
| COc1ccc(S(=O)(=O)N(CC(C)C)C[C@@H](O)[C@H](Cc2ccccc2)NC(=O)OCCN2CCOCC2)cc1 | 0.09 | 0.41 | Ratio Ki [3]: 4; inhibition at 10 µM [4]: 94%; Ratio IC50 [5]: 4; EC50 [6]: 9.5 µM; inhibition at 10 µM [7]: 5%; EC50 [8]: 1200 nM |
| CC(C)CN(C[C@@H](O)[C@H](Cc1ccccc1)NC(=O)OCCN1CCOCC1)S(=O)(=O)c1ccc(C(F)(F)F)cc1 | 2.22 | 9.92 |  |
| COc1ccc(S(=O)(=O)N(CC(C)C)C[C@@H](O)[C@H](Cc2ccccc2)NC(=O)CN2CCOCC2)cc1 | 7.44 | 33.2 |  |
| CC(C)CN(C[C@@H](O)[C@H](Cc1ccccc1)NC(=O)OCCN1CCOCC1)S(=O)(=O)c1ccc(N)cc1 | 0.86 | 3.85 |  |
| CC(C)CN(C[C@@H](O)[C@H](Cc1ccccc1)NC(=O)CN1CCO[C@H](C)C1)S(=O)(=O)c1ccc(N)cc1 | 18.9 | 84.6 |  |
| CC(C)CN(C[C@@H](O)[C@H](Cc1ccccc1)NCC(=O)N1CCOCC1)S(=O)(=O)c1ccc(C(F)(F)F)cc1 | 127 | 568 |  |
| CC(C)CN(C[C@@H](O)[C@H](Cc1ccccc1)NCCN1CCOCC1)S(=O)(=O)c1ccc(C(F)(F)F)cc1 | 336 | 1500 |  |
| COc1ccc(S(=O)(=O)N(CC(C)C)C[C@@H](O)[C@H](Cc2ccccc2)NCCN2CCOCC2)cc1 | 250 | 1110 |  |
| CC(C)CN(C[C@@H](O)[C@H](Cc1ccccc1)NC(=O)CN1CCOCC1)S(=O)(=O)c1ccc(C(F)(F)F)cc1 | 9.9 | 44.2 |  |
| CC(C)CN(C[C@@H](O)[C@H](Cc1ccccc1)NC(=O)N1CCOCC1)S(=O)(=O)c1ccc(C(F)(F)F)cc1 | 16.8 | 75 |  |
| CC(C)CN(C[C@@H](O)[C@H](Cc1ccccc1)NC(=O)CN1CCOCC1)S(=O)(=O)c1ccc(N)cc1 | 8.45 | 37.7 |  |
| CC(C)CN(C[C@@H](O)[C@H](Cc1ccccc1)NC(=O)O[C@H]1CO[C@H]2OCC[C@H]21)S(=O)(=O)c1ccc(N)cc1 |  |  | inhibition at 10 µM [4]: 100%; EC50 [6]: 0.24 µM; EC50 [8]: 3.9 nM |
| COc1ccc(S(=O)(=O)N(CC(C)C)C[C@@H](O)[C@H](Cc2ccccc2)NCC(=O)N2CCOCC2)cc1 | 298 | 1330 |  |
| COc1ccc(S(=O)(=O)N(CC(C)C)C[C@@H](O)[C@H](Cc2ccccc2)NC[C@H](O)CN2CCOCC2)cc1 | 750 | 1500 |  |
| COc1ccc(S(=O)(=O)N(CC(C)C)C[C@@H](O)[C@H](Cc2ccccc2)NC(=O)CN2CCO[C@@H](C)C2)cc1 | 5.71 | 25.5 |  |
| CC(C)CN(C[C@@H](O)[C@H](Cc1ccccc1)NC(=O)CN1CCO[C@@H](C)C1)S(=O)(=O)c1ccc(C(F)(F)F)cc1 | 93.9 | 419 |  |
| COc1ccc(S(=O)(=O)N(CC(C)C)C[C@@H](O)[C@H](Cc2ccccc2)NC(=O)N2CCOCC2)cc1 | 0.21 | 0.95 | Ratio Ki [3]: 2; inhibition at 10 µM [4]: 91%; Ratio IC50 [5]: 2; EC50 [6]: 4.9 µM; inhibition at 10 µM [7]: 12%; EC50 [8]: 2000 nM |
| CC(C)CN(C[C@@H](O)[C@H](Cc1ccccc1)NC(=O)CN1CCO[C@H](C)C1)S(=O)(=O)c1ccc(C(F)(F)F)cc1 | 61 | 272 |  |
| CC(C)CN(C[C@@H](O)[C@H](Cc1ccccc1)NC[C@H](O)CN1CCOCC1)S(=O)(=O)c1ccc(N)cc1 | 197 | 881 |  |
| CC(C)CN(C[C@@H](O)[C@H](Cc1ccccc1)NC[C@H](O)CN1CCOCC1)S(=O)(=O)c1ccc(C(F)(F)F)cc1 | 651 | 1500 |  |
| CC(C)CN(C[C@@H](O)[C@H](Cc1ccccc1)NC(=O)CN1CCO[C@@H](C)C1)S(=O)(=O)c1ccc(N)cc1 | 28.4 | 127 |  |
